Measurements reported in a melting point compilation (Tetko et al.; mined from patent text by program, amines drawn as free bases though some values may be those of a salt).

With `CC1(C)OC(C(F)(F)F)Nc2ccc(-c3cc(F)cc(C#N)c3)cc21` (centres undefined) the melting point was 102 to 103 °C. Work on `COc1cc(OC)cc(N2CCN(C(=S)Nc3cc(C(C)O)c(C)cc3OC)CC2)c1` (centres undefined) yielded a melting point of 146 to 148 °C. In the case of `COc1cc(OC)c([C@@H]2CCCC[C@H]2O)c(O)c1C(C)=O` (relative stereo), the melting point was 162 to 164 °C. Work on `O=C(c1ccccc1)c1ccc2sc(NCCO)nc2c1` yielded a melting point of 159 °C. `Nc1ccccc1Oc1c(C(=O)O)[nH]c2ccccc12` gave a melting point of 217 to 218 °C. `CC(C)(C)OC(=O)NC[C@H]1CC[C@H](NC(=O)OCc2ccccc2)CC1` gave a melting point of 130 to 131 °C. With `OC(c1ccc(F)cc1)(c1ccc(F)cc1)c1ncc[nH]1` the melting point was 198 to 200 °C. Work on `NC(=O)N1CC(OCc2cccc(Cl)c2)C1` yielded a melting point of 163 to 166 °C. For `O=C1OC(CI)CN1c1cc(F)c(-c2cccnc2)c(F)c1` (centres undefined), the melting point was 133 to 134 °C. Work on `O=C(O)c1ccccc1-c1c2ccc(=O)cc-2oc2cc(O)ccc12` yielded a melting point of 185 to 190 °C. Work on `CC(=O)C=Cc1cc2ccccc2o1` yielded a melting point of 100 to 101 °C. With `CCCc1ccc(OCc2ccc(OCc3nc(-c4ccccc4)oc3C)cc2)cc1OCC(=O)O` the melting point was 162 to 163 °C. `N#CCc1ccc([N+](=O)[O-])c2[nH]ncc12` showed a melting point of 198 to 200 °C. `Cc1cc(=O)n2c3c(cc(C(O)(C(F)(F)F)C(F)(F)Cl)cc13)CC2` (centres undefined) showed a melting point of 160 to 164 °C. Compound `COc1ccc(S(=O)(=O)n2c(N)nc3c2c(=O)n(CC2CC2)c(=O)n3CC2CC2)cc1` has a melting point of 177 to 178 °C. Compound `CCn1c(Oc2cccc(N3CCC4(CC3)OCCO4)c2)nnc1[C@@H](C)NS(=O)(=O)c1ccc(Cl)c(Cl)c1` has a melting point of 174 to 179 °C. With `CN(C(=O)c1ccc(Cl)c(Cl)c1)c1ccc(Cl)cc1CCC(=O)O` the melting point was 159 to 160 °C. `COc1ccc(-c2cnc(NS(=O)(=O)c3ccc(C)cc3)nc2)cc1` showed a melting point of 220 to 223 °C. In the case of `CN(C)C(=O)Cc1ccc(CC(=O)O)cc1`, the melting point was 163 to 165 °C. In the case of `O=C(O)c1ccc2[nH]cc(-c3cc4cccnc4[nH]3)c2c1`, the melting point was greater than 300 °C. In the case of `CC(=O)N1CCc2c(sc(C)c2C(=O)CN2CCC(c3noc4cc(F)ccc34)CC2)C1`, the melting point was 92 to 94 °C. For `Cc1nn(-c2ccc(C(F)(F)F)cn2)cc1CCCO`, the melting point was 103 to 104 °C. For `Cc1cc2c(s1)CCCC1CC(=O)N(c3ccccc3)N=C21` (centres undefined), the melting point was 102 to 103 °C. Compound `COc1ccc(Cn2nnnc2C2N3C(=O)C(NC(c4ccccc4)(c4ccccc4)c4ccccc4)C3SC2(C)C)cc1` (centres undefined) has a melting point of 178 to 182 °C. Compound `O=C(O)C[C@]1(O)C[C@H](CCCCCCc2ccc(C(F)(F)F)cc2C(F)(F)F)OC1=O` (relative stereo) has a melting point of 70 to 73 °C. In the case of `CC(C)C(C#N)c1ccc([N+](=O)[O-])cc1` (centres undefined), the melting point was 71 to 72 °C. In the case of `COc1cc2sc(C=O)cc2c(Cl)c1OC`, the melting point was 164 to 165 °C. For `CN1CC(CCN2CCN(c3ccc(Cl)cc3)CC2)OC1=O` (centres undefined), the melting point was 113 to 114 °C. `COC(=O)CC(=O)c1nccn1C` showed a melting point of 142 to 143 °C. `CCOC(=O)C(CCCCCc1ccc(Cl)cc1)C(N)=O` (centres undefined) gave a melting point of 110 to 111 °C. Work on `CCCc1nc2c(c(C)c(C)n3nnnc23)n1CC(C)(C)N` yielded a melting point of 154 to 156 °C. With `CN(C)CC(=O)N(C)c1ccc(OCC(=O)N[C@@H](CC(N)=O)C(=O)N[C@@H](Cc2ccccc2)[C@H](O)C(=O)N2CCC[C@H]2C(=O)NC(C)(C)C)cc1` the melting point was 129 to 135 °C. Compound `O=C(O)CC[C@@H](CSc1ccc(Cc2ccccc2)cc1)NC(=O)CCCCCCc1ccccc1` has a melting point of 89 to 91.5 °C. For `COC(=O)CCCC#CCn1c(-c2ccccc2)c(-c2ccccc2)n(-c2ccccc2)c1=O`, the melting point was 133 to 134 °C. With `N#CN1CCC(C2c3ccccc3NN2c2ccccc2Cl)CC1` (centres undefined) the melting point was 109 to 111 °C. `COC(=O)c1cc2ccc(OC)cc2n1CCN1CCC(N)CC1` gave a melting point of 101 °C. `NCCc1c[nH]c2ccc(-c3ccc(F)cc3)cc12` gave a melting point greater than 250 °C. Work on `COc1c(-c2ccccc2)c2ccc(-c3ccc(C(C)C)cc3)cc2oc1=O` yielded a melting point of 85.5 °C. `COC(=O)C(C)(C)CCCOc1cc(C)c(NS(=O)(=O)c2ccc(OC)cc2)cc1C` showed a melting point of 90 to 92 °C.
